Our source for the IC50 values is ChEMBL document CHEMBL1144933, “Novel bioactive and stable neurotensin peptide analogues capable of delivering radiopharmaceuticals and molecular beacons to tumors” (J Med Chem, 2003).

Sequence of Neurotensin receptor type 1 (P30989 whole entry): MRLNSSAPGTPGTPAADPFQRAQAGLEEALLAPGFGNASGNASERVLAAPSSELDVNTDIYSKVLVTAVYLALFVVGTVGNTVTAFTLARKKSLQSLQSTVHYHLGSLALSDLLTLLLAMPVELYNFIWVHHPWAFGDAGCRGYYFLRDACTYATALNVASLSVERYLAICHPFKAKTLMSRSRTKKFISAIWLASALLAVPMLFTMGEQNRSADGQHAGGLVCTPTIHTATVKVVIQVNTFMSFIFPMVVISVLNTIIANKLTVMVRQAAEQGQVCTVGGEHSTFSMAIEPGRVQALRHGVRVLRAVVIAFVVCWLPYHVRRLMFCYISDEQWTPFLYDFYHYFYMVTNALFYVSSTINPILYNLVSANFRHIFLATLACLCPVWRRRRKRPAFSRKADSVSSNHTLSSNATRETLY

One experiment addresses Neurotensin receptor type 1 (Homo sapiens, UniProt P30989). Put plainly: Binding affinity towards neurotensin receptor in membranes prepared from HT-29 cell line, relative to [111In]-labeled neurotensin peptide.
Conditions: not given
The IC50 is the concentration that gives 50% inhibition. Low readings indicate greater potency, high ones weaker potency. The compound `CC[C@H](C)[C@H](NC(=O)[C@H](Cc1ccc(O)cc1)NC(=O)[C@@H]1CCCN1C(=O)[C@H](CCCN=C(N)N)NC(=O)[C@H](Cc1ccc(NC(=N)N)cc1)NC(=O)[C@@H]1CCCN1C(=O)[C@@H](CCCCN)NC(=O)CN(CCN(CCN(CC(=O)O)CC(=O)O)CC(=O)O)CC(=O)O)C(=O)N[C@@H](CC(C)C)C(=O)O` showed an IC50 of 0.5 nM.

In the case of `CC[C@H](C)[C@H](NC(=O)[C@H](Cc1ccc(O)cc1)NC(=O)[C@@H]1CCCN1C(=O)[C@H](Cc1ccc(N=C(N)N)cc1)NC(=O)[C@H](CCCNC(=N)N)NC(=O)[C@@H]1CCCN1C(=O)[C@@H](CCCCN)NC(=O)CN(CCN(CCN(CC(=O)O)CC(=O)O)CC(=O)O)CC(=O)O)C(=O)N[C@@H](CC(C)C)C(=O)O`, the IC50 is 0.4 nM. Still for that read-out and setting: for `CC(C)(C)[C@H](NC(=O)[C@H](Cc1ccc(O)cc1)NC(=O)[C@@H]1CCCN1C(=O)[C@H](CCCN=C(N)N)NC(=O)[C@@H](NC(=O)[C@@H]1CCCN1C(=O)[C@H](CCCCN)NC(=O)[C@H](CC(N)=O)NC(=O)[C@H](CCC(=O)O)NC(=O)[C@@H](Cc1ccc(O)cc1)NC(=O)CN(CCN(CCN(CC(=O)O)CC(=O)O)CC(=O)O)CC(=O)O)C1CCN(C(=N)N)CC1)C(=O)N[C@@H](CC1CCCCC1)C(=O)O` the value was 0.6 nM; for `CC(C)(C)C[C@H](NC(=O)[C@@H](NC(=O)[C@H](Cc1ccc(O)cc1)NC(=O)[C@@H]1CCCN1C(=O)[C@H](CCCNC(=N)N)NC(=O)[C@@H](NC(=O)[C@@H]1CCCN1C(=O)[C@H](CCCCN)NC(=O)[C@H](CC(N)=O)NC(=O)[C@H](CCC(=O)O)NC(=O)[C@@H](Cc1ccc(O)cc1)NC(=O)CN(CCN(CCN(CC(=O)O)CC(=O)O)CC(=O)O)CC(=O)O)C1CCN(C(=N)N)CC1)C(C)(C)C)C(=O)O`, 0.4 nM; for `CC(C)C[C@H](NC(=O)[C@@H](NC(=O)[C@H](Cc1ccc(O)cc1)NC(=O)[C@@H]1CCCN1C(=O)[C@H](CCCNC(=N)N)NC(=O)[C@@H](NC(=O)[C@H](CCCN=C(N)N)NC(=O)[C@@H]1CCN1C(=O)[C@@H](CCCCN)NC(=O)CN(CCN(CCN(CC(=O)O)CC(=O)O)CC(=O)O)CC(=O)O)C1CCN(C(=N)N)CC1)C(C)(C)C)C(=O)O`, 11.5 nM.

The compound `CC(C)(C)C[C@H](NC(=O)[C@@H](NC(=O)[C@H](Cc1ccc(O)cc1)NC(=O)[C@@H]1CCCN1C(=O)[C@H](CCCN=C(N)N)NC(=O)[C@@H](NC(=O)[C@@H]1CCCN1C(=O)[C@@H](CCCCN)NC(=O)CN(CCN(CCN(CC(=O)O)CC(=O)O)CC(=O)O)CC(=O)O)C1CCN(C(=N)N)CC1)C(C)(C)C)C(=O)O` came in with an IC50 of 21.7 nM.

For the compound `CC(C)(C)[C@H](NC(=O)[C@H](Cc1ccc(O)cc1)NC(=O)[C@@H]1CCCN1C(=O)[C@H](CCCN=C(N)N)NC(=O)[C@@H](NC(=O)[C@@H]1CCCN1C(=O)[C@@H](CCCCN)NC(=O)CN(CCN(CCN(CC(=O)O)CC(=O)O)CC(=O)O)CC(=O)O)C1CCN(C(=N)N)CC1)C(=O)N[C@@H](CC1CCCCC1)C(=O)O`, the IC50 was found to be 11.7 nM. Against the preceding compound, the IC50 is about 1.9-fold lower. Compound `CC(C)C[C@H](NC(=O)[C@@H](NC(=O)[C@H](Cc1ccc(O)cc1)NC(=O)[C@@H]1CCN1C(=O)[C@H](CCCN=C(N)N)NC(=O)[C@@H](NC(=O)[C@H](CCCN=C(N)N)NC(=O)[C@@H]1CCCN1C(=O)[C@@H](CCCCN)NC(=O)CN(CCN(CCN(CC(=O)O)CC(=O)O)CC(=O)O)CC(=O)O)C1CCN(C(=N)N)CC1)C(C)(C)C)C(=O)O` gave an IC50 of 113 nM. The same measure, in the same setting: for `CC(C)(C)[C@H](NC(=O)[C@H](Cc1ccc(O)cc1)NC(=O)[C@@H]1CCCN1C(=O)[C@H](CCCNC(=N)N)NC(=O)[C@@H](NC(=O)[C@@H]1CCCN1C(=O)[C@@H](CCCCN)NC(=O)CN(CCN(CCN(CC(=O)O)CC(=O)O)CC(=O)O)CC(=O)O)C1CCN(C(=N)N)CC1)C(=O)N[C@@H](CC1CCCC1)C(=O)O` the value was 42.4 nM. The same measure, in the same setting: for `CC(C)C[C@H](NC(=O)[C@@H](NC(=O)[C@H](Cc1ccc(O)cc1)NC(=O)[C@@H]1CCCN1C(=O)[C@H](CCCN=C(N)N)NC(=O)[C@@H](NC(=O)[C@@H]1CCCN1C(=O)[C@H](CCCCN)NC(=O)[C@H](CC(N)=O)NC(=O)[C@H](CCC(=O)O)NC(=O)[C@@H](Cc1ccc(O)cc1)NC(=O)CN(CCN(CCN(CC(=O)O)CC(=O)O)CC(=O)O)CC(=O)O)C1CCN(C(=N)N)CC1)C(C)(C)C)C(=O)O` the value was 1.5 nM.

The experiment is the same for the next values; noted with them: ht-29.
Regarding `CC(C)C[C@H](NC(=O)[C@@H](NC(=O)[C@@H](Cc1ccc(O)cc1)NC(=O)[C@@H]1CCCN1C(=O)[C@H](CCCN=C(N)N)NC(=O)[C@@H](NC(=O)[C@@H]1CCCN1C(=O)[C@@H](CCCCN)NC(=O)CN(CCN(CCN(CC(=O)O)CC(=O)O)CC(=O)O)CC(=O)O)C1CCN(C(=N)N)CC1)C(C)(C)C)C(=O)O`, the IC50 worked out at 0.6 nM. As for `CC[C@H](C)[C@H](NC(=O)[C@H](Cc1ccc(O)cc1)NC(=O)[C@@H]1CCCN1C(=O)[C@H](CCCN=C(N)N)NC(=O)[C@H](CCc1ccnc(N)n1)NC(=O)[C@@H]1CCCN1C(=O)[C@@H](CCCCN)NC(=O)CN(CCN(CCN(CC(=O)O)CC(=O)O)CC(=O)O)CC(=O)O)C(=O)N[C@@H](CC(C)C)C(=O)O`, the IC50 is 10.2 nM. On the same count and under the same terms, for `CC(C)C[C@H](NC(=O)[C@@H](NC(=O)[C@H](Cc1cccc(O)c1)NC(=O)[C@@H]1CCCN1C(=O)[C@H](CCCN=C(N)N)NC(=O)[C@@H](NC(=O)[C@@H]1CCCN1C(=O)[C@@H](CCCCN)NC(=O)CN(CCN(CCN(CC(=O)O)CC(=O)O)CC(=O)O)CC(=O)O)C1CCN(C(=N)N)CC1)C(C)(C)C)C(=O)O` the value was 106 nM; for `CC(C)C[C@H](NC(=O)[C@@H](NC(=O)[C@H](Cc1ccc(O)cc1)NC(=O)[C@@H]1CCCN1C(=O)[C@@H](NC(=O)[C@@H](NC(=O)[C@@H]1CCCN1C(=O)[C@@H](CCCCN)NC(=O)CN(CCN(CCN(CC(=O)O)CC(=O)O)CC(=O)O)CC(=O)O)C1CCN(C(=N)N)CC1)C1CCNCC1)C(C)(C)C)C(=O)O`, 59.6 nM; for `CC[C@H](C)[C@H](NC(=O)[C@H](Cc1ccc(O)cc1)NC(=O)[C@@H]1CCCN1C(=O)[C@H](CCCN=C(N)N)NC(=O)[C@@H](NC(=O)[C@@H]1CCCN1C(=O)[C@@H](CCCCNC(=S)Nc1ccc2c(c1)C(=O)OC21c2ccc(O)cc2Oc2cc(O)ccc21)NC(=S)Nc1ccc2c(c1)C(=O)OC21c2ccc(O)cc2Oc2cc(O)ccc21)C1CCN(C(=N)N)CC1)C(=O)N[C@@H](CC(C)C)C(=O)O`, 3.4 nM. The compound `CC[C@H](C)[C@H](NC(=O)[C@H](Cc1ccc(O)cc1)NC(=O)[C@@H]1CCCN1C(=O)[C@H](CCCN=C(N)N)NC(=O)[C@@H](NC(=O)[C@@H]1CCCN1C(=O)[C@H](N)CCCCNC(=S)Nc1ccc2c(c1)C(=O)OC21c2ccc(O)cc2Oc2cc(O)ccc21)C1CCN(C(=N)N)CC1)C(=O)N[C@@H](CC(C)C)C(=O)O` registered an IC50 of 0.6 nM. The same measure, in the same setting: for `CC[C@H](C)[C@H](NC(=O)[C@H](Cc1ccc(O)cc1)NC(=O)[C@@H]1CCCN1C(=O)[C@H](CCCNC(=N)N)NC(=O)[C@@H](NC(=O)[C@@H]1CCCN1C(=O)[C@@H](CCCCN)NC(=S)Nc1ccc2c(c1)C(=O)OC21c2ccc(O)cc2Oc2cc(O)ccc21)C1CCN(C(=N)N)CC1)C(=O)N[C@@H](CC(C)C)C(=O)O` the value was 1.2 nM. With `CC(C)C[C@H](NC(=O)[C@@H](NC(=O)[C@H](Cc1ccc(O)cc1)NC(=O)[C@@H]1CCCN1C(=O)[C@H](CCCN=C(N)N)NC(=O)[C@@H](NC(=O)[C@@H]1CCCN1C(=O)[C@@H](CCCCN)NC(=O)CN(CCN(CCN(CC(=O)O)CC(=O)O)CC(=O)O)CC(=O)O)C1CCN(C(=N)N)CC1)C(C)(C)C)C(=O)O`, the IC50 was 0.4 nM.
